In patent US8536196B2, “Substituted 1,3-dioxanes useful as PPAR modulators” (Evolva SA, priority 2007, dated 2013):

What was measured:
MEFs / 3T3-L1 = test: Adipocyte differentiation induction assay (Oil Red O staining); format: cell-based, mouse; set-up: key to Adip. (adipocyte differentiation): 0: similar results to DPD; −1: even less adipocyte differentiation; +1: more adipocyte differentiation (both relative to DPD); settings: relative to DPD (SN1)
Procedure: This example describes an assay for determining adipocyte differention. Compounds are tested to see whether they induce adipocyte differentiation and also to see whether they inhibit adipocyte differention.
MEFs were grown in AmnioMax basal medium (Gibco) supplemented with 7.5% Amniomax supplement C-100 (Gibco), 7.5% Fetal Bovine Serum (FBS), 2 mM Glutamine, 62.5 μg/ml penicillin and 100 μg/ml Streptomycin (growth medium). At confluence, MEFs were induced to differentiation in growth medium with the addition of 1 μM dexamethasone (Sigma) 0.5 mM isobutylmethylxanthine (Sigma), 5 μg/ml insulin (Sigma) and 10 μM test compound dissolved in DMSO or DMSO alone. Medium was subsequently renewed every 48 hrs with growth media supplemented with 5 μg/ml Insulin and ligand or DMSO.
Briefly, to test compounds as inducers of adipocyte differentiation, 3T3-L1 are grown to confluence in DMEM with 10% Calf serum (CS), typically in 24 well dishes. At 2 days post confluence (day 0), cells are induced to differentiate with DMEM supplemented with 10% fetal bovine serum (FBS), 1 μM dexamethasone and the test compound (01, 1 and 10 μM). BRL49653 (1.0 μM dissolved in 100% DMSO) is used as a positive control. After 48 h, the cells are re-fed with DMEM containing 10% FBS supplemented with the test compound or the positive control. From day 4, cells are grown in DMEM with 10% FBS and are changed every second day until day 8. At day 8, cells are stained with Oil Red O as described below.
Cells cultured as described above are used for Oil Red staining. Dishes are washed in PBS and cells were fixed in 3.7% paraformaldehyde for 1 h and stained with oil red O as described in (Hansen et al 1999). Oil red O solution stock solution is prepared by dissolving 0.5 g of Oil Red O (Sigma) in 100 mL of isopropanol. Oil re 0 working solution is prepared by diluting a stock solution with water (6:4) followed by filtration.
Table II summarizes results obtained with different analogs of DPD (SN1), “0” representing similar results to DPD, “−1” representing even less adipocyte differentiation, “+1” representing more adipocyte differentiation (both relative to DPD) and “−” meaning not assayed.

[1] = test system: mice (FeCl3 induced femoral artery thrombosis); test: FeCl3 arterial thrombosis mouse model (occlusion time, blood flow); format: in vivo
Procedure: The solutions were diluted 3.3-fold in saline and 100 μl/25 g was injected.
During the experiments, a soluble potassium salt of the drug was provided, diluted in saline. Of this formulation, 100 μl/25 g was injected i.v. in the tail vein (dose of 100 mg/kg).
Aspirin is given the same way at a dose of 200 mg/kg. Clopidogrel is administered by oral gavage at a dose of 20 mg/kg at 6-7 hours prior to the experiment. The solutions were coded (except for clopidogrel) and the operator was blinded to the code. The animals assigned to each group were matched for body weight. All mice used were 8-10 weeks old males and were in a 100% Swiss genetic background.
(§1) The flow in each image is expressed as a percentage of that at the contralateral side, and data are averaged for all 120 images to determine total flow. The same analysis is performed for 10 min intervals (which gives essentially the same information as the area under the curve). […] Flow before treatment is recorded as 100%, and that in occluded arteries as 0%. At the end of the experiment, blood is collected on 0.01M citrate by heart puncture for determination of blood cell counts. Plasma is prepared by centrifugation and stored at −20° C. for determination of drug levels.
Statistical analysis for differences between two groups is performed by non-parametric Student t-test. Occlusion times >30 min were considered equal to 30 min for statistical analysis. It should be noted that this approach may result in a statistical bias, the more so because the number of experiments is not the same in the different groups. Significance is set at p<0.05.

[2] = Blood cell analysis at end of thrombosis experiment; format: in vivo, mouse
Procedure: as §1
Table VI summarizes the results of blood cell analysis performed on a sample taken at the end of the observation period. (Z)-6-((2S,4S,5R)-2-(2-chlorophenyl)-4-(2-hydroxyphenyl)-1,3-dioxan-5-yl)hex-4-enoic is referred to in Table VI as EV.

[3] = Aspirin 200 mg/kg i.v., n = 7, mean ± SEM
[4] = Clopidogrel 20 mg/kg oral gavage, n = 6, mean ± SEM

In the case of `O=C(O)CC/C=C\C[C@@H]1COC2(CCCCC2)O[C@@H]1c1ccccc1O` [compound 6], the “Adip. (adipocyte differentiation)” value (MEFs / 3T3-L1) is reported as 0.
For `O=C(O)CCC/C=C\C[C@@H]1CO[C@H](c2ccccc2Cl)O[C@@H]1c1ccccc1O` [compound 23], the “Adip. (adipocyte differentiation)” value (MEFs / 3T3-L1) was “+1”.
With `COc1ccccc1[C@H]1O[C@@H](c2ccccc2Cl)OC[C@H]1C/C=C\CCC(=O)O` [Compound 5, (Z)-6-((2S,4S,5R)-2-(2-chlorophenyl)-4-(2-methoxyphenyl)-1,3-dioxan-5-yl)hex-4-enoic acid] the “Adip. (adipocyte differentiation)” value (MEFs / 3T3-L1) was 0.
For `CC(C)[C@H]1OC[C@@H](C/C=C\CCC(=O)O)[C@@H](c2ccccc2O)O1` [compound 20], the “Adip. (adipocyte differentiation)” value (MEFs / 3T3-L1) was 0.
With `COc1ccccc1[C@@H]1O[C@H](c2ccccc2Cl)OC[C@@H]1C/C=C\CCC(=O)O` [Compound 4, (Z)-6-((2R,4R,5S)-2-(2-chlorophenyl)-4-(2-methoxyphenyl)-1,3-dioxan-5-yl)hex-4-enoic acid] the “Adip. (adipocyte differentiation)” value (MEFs / 3T3-L1) was 0.
With `CC(=O)Oc1ccccc1C(=O)O` [Aspirin, reference compound] the occlusion time ([1]; 200 mg/kg i.v. in the tail vein) was “no effect”, the total blood flow ([1]; 200 mg/kg i.v., versus vehicle) was “no significant effect” and the Hematocrit [2, 3] was 72 ± 0.60%. The Hemoglobin [2, 3] was 15 ± 0.19 g/dL, the Lymphocytes [2, 3] was 60 ± 11% and the Neutrophils [2, 3] was 39 ± 11%. The Platelets [2, 3] was 1020 ± 59 ×10^3/μl, the Red blood cells [2, 3] was 9.3 ± 0.10 ×10^6/μl and the White blood cells [2, 3] was 1.4 ± 0.42 ×10^3/μl.
For `O=C(O)CCCCCCC[C@@H]1CO[C@H](c2ccccc2Cl)O[C@@H]1c1ccccc1O` [compound 31], the “Adip. (adipocyte differentiation)” value (MEFs / 3T3-L1) was 0.
For `CCCCCC1OC[C@@H](C/C=C\CCC(=O)O)[C@@H](c2ccccc2O)O1` (some centres unmarked) [compound 11], the “Adip. (adipocyte differentiation)” value (MEFs / 3T3-L1) was “+1”.
For `O=C(O)CC/C=C\C[C@@H]1CO[C@H](c2ccccc2Cl)O[C@@H]1c1ccccc1O` [compound 1], the “Adip. (adipocyte differentiation)” value (MEFs / 3T3-L1) was 0.
With `O=C(O)CC/C=C\C[C@@H]1CO[C@H](C2CCCCC2)O[C@@H]1c1ccccc1O` [compound 21] the “Adip. (adipocyte differentiation)” value (MEFs / 3T3-L1) was 0.
In the case of `COC(=O)[C@H](c1ccccc1Cl)N1CCc2sccc2C1` [Clopidogrel, reference compound], the occlusion ([1]; 20 mg/kg oral gavage 6-7 hours prior to the experiment, 30 min observation) is reported as “totally prevents occlusion within 30 min in 6/7 experiments”, the total blood flow ([1]; 20 mg/kg oral gavage, versus vehicle) is reported as “significantly improved total blood flow” and the Hematocrit [2, 4] is reported as 72 ± 2.7%. It also gave a Hemoglobin [2, 4] of 15 ± 0.60 g/dL, a Lymphocytes [2, 4] of 47 ± 7.8% and a Neutrophils [2, 4] of 50 ± 7.2%. The Platelets [2, 4] was 1060 ± 106 ×10^3/μl, the Red blood cells [2, 4] was 9.0 ± 0.36 ×10^6/μl and the White blood cells [2, 4] was 0.62 ± 0.22 ×10^3/μl.
In the case of `O=C(O)CC/C=C\C[C@@H]1COC(c2cccc(Cl)c2Cl)O[C@@H]1c1ccccc1O` (some centres unmarked) [compound 2], the “Adip. (adipocyte differentiation)” value (MEFs / 3T3-L1) is reported as 0.
In the case of `COc1ccccc1[C@H]1OC[C@@H](C/C=C\CCC(=O)O)[C@@H](c2ccccc2O)O1` [compound 18], the “Adip. (adipocyte differentiation)” value (MEFs / 3T3-L1) is reported as −1.
For `COc1cccc([C@H]2OC[C@@H](C/C=C\CCC(=O)O)[C@@H](c3ccccc3O)O2)c1OC` [compound 19], the “Adip. (adipocyte differentiation)” value (MEFs / 3T3-L1) was 0.
With `O=C([O-])CC/C=C\C[C@@H]1CO[C@H](c2ccccc2Cl)O[C@@H]1c1ccccc1O.[K+]` [(Z)-6-((2S,4S,5R)-2-(2-chlorophenyl)-4-(2-hydroxyphenyl)-1,3-dioxan-5-yl(hex-4-enoic potassium] the “blood flow, time window 0-10 min” value ([1]; 100 mg/kg in saline i.v.) was “significantly higher blood flow as compared to either saline alone (p=0.009) or to aspirin (p=0.0006)”, the occlusion time ([1]; 100 mg/kg in saline i.v.) was “prolonged the occlusion time” and the total blood flow ([1]; 100 mg/kg in saline i.v.) was “significantly improved total blood flow as compared to either saline (p=0.0032) or aspirin (p=0.0021)”.
With `O=C(O)CC/C=C\C[C@@H]1COC(c2cccc3ccccc23)O[C@@H]1c1ccccc1O` (some centres unmarked) [compound 9] the “Adip. (adipocyte differentiation)” value (MEFs / 3T3-L1) was 0.
In the case of `C/C=C/CC1OC[C@@H](C/C=C\CCC(=O)O)[C@@H](c2ccccc2O)O1` (some centres unmarked) [compound 12], the “Adip. (adipocyte differentiation)” value (MEFs / 3T3-L1) is reported as −1.
